# According to PMC12781162, “Human Protein Z as the Second Known Heme‐Binding Protein from the Endogenous Blood Coagulation Inhibitor System” (Chembiochem, 2025):
# “And” between values parts separate entries of the source, which are not always exact repeats. Equal entries are not always repeated. “Also recorded” adds a separate entry of the source. Where two headings read alike, the source gives them in different places. No end group written: not given here. Cys(S-Me) = S-methylated cysteine
# Experiments:
# [1] = molecular target: T1, Human protein Z (PZ) (Homo sapiens, UniProt P22891); assay: SPR binding of porphyrins to immobilized PZ (single-cycle kinetics); conditions: tested concentration range 187.5 nM – 12 µM
# T1 construct: purchased CellSystems GmbH HCPZ-0220
# Method: (§1) SPR experiments were conducted on a Biacore 8K instrument (Cytiva) to investigate the interaction of PZ with heme, as established before.^[ [19] ^, [35] ^, [37] ^, [43] ^] In brief, PZ (10 µg mL^−1) was dissolved in 10 mM sodium acetate buffer (pH 3.5) and immobilized onto a CM5 sensor chip via standard amine coupling, resulting in a final immobilization level of 767 RU. Heme (stock solution in 30 mM NaOH) was further diluted in running buffer (10 mM HEPES, 150 mM NaCl, and 0.05% Tween 20, pH 7.4). The same was performed with zinc (II) protoporphyrin IX and protoporphyrin IX (Frontier Scientific). Binding kinetics were assessed by injecting seven increasing concentrations of heme (187.5–12,000 nM) in a single‐cycle kinetics format at 25 °C and a flow rate of 30 µL min^−1. Data analysis was performed by global fitting using Biacore Insight Evaluation Software, version 3.0.12.15655 (Cytiva).
# [2] = molecular target: T2, thrombin (Homo sapiens, UniProt P00734); assay: SPR binding of porphyrins to immobilized thrombin; set-up: human α‐thrombin (HCT‐0020); purchased CellSystems GmbH HCT-0020
# Method: as §1
# Figure S7. Heme binds to thrombin. For SPR analysis, thrombin (10 µg/ml) was dissolved in 10 mM sodium acetate buffer (pH 6.0) and immobilized onto a CM5 sensor chip via standard amine coupling, resulting in a final immobilization level of 1826.1 RU. Binding kinetics were assessed by injecting six increasing concentrations of heme (187.5 – 6,000 nM) in a single-cycle kinetics format at 25°C and a flow rate of […]
# transient nature of heme binding to thrombin. […]
# [3] = UV/vis spectroscopic interaction studies of PZ-derived peptides with heme; assay type: binding; conditions: peptide 10 µM; for heme binding on peptide level: heme 0.4-40 µM; for Kd: read-out: K D (heme-binding affinity of peptide)
# Method: Heme binding to PZ‐derived peptides 1 –5 was analyzed by UV/vis spectroscopy, as previously reported for other protein‐derived peptides as well.^[ [18] ^, [19] ^, [35] ^, [43] ^, [44] ^] In brief, each peptide (10 µM) was incubated for 30 min with heme in 100 mM HEPES buffer (pH 7.0) for 30 min. Absorbance spectra were recorded in the range of 300–600 nm on a Infinite 200 Pro spectrophotometer. Difference spectra were generated by subtraction of the single absorbance data of heme and the peptide, respectively, from the data of the heme–peptide complex. Difference spectra were plotted with GraphPad Prism, version 10.5.0. K D values were calculated using the equation from Pîrnău and Bogdan (2008).^[ [45] ^]
# [4] = tested on: T3, human α-thrombin; assay: Chromogenic thrombin amidolytic activity assay (S-2238); assay type: biochemical
# T3 construct: human α‐thrombin (HCT‐0020); purchased CellSystems GmbH HCT-0020
# Method: (§2) Herein, an earlier established chromogenic thrombin amidolytic activity assay system was thus used, inspired by Hogg and Stenflo.^[ [19] ^, [28] ^] PZ (final concentration: 10 nM) was first incubated for 30 min with different heme concentrations (final concentrations: 1–1000 nM). Afterward, the heme–PZ mixture was incubated with thrombin for 10 min and the PZ–thrombin mixture (50 µL; final thrombin concentration: 15 nM) was transferred onto a 96‐well plate (Greiner Bio‐One GmbH). Finally, 5 µL of the substrate solution (H‐D‐Phe‐Pip‐Arg‐pNA x 2 HCl (S‐2238); final concentration: 273 µM) was added. Immediately, kinetic measurements at 405 nm were started, using an Infinite 200 Pro spectrophotometer. Heme only, thrombin only, and PZ‐heme only served as controls. For evaluation, the thrombin activity was determined as the change of absorbance per second and always normalized against the basal thrombin activity without PZ. Data were analyzed as the mean of triplicate and the IC50 was calculated by nonlinear regression (GraphPad Prism, version 10.5.0).
# [5] = molecular target: T4, PZ (Homo sapiens, UniProt P22891); assay: aPTT-based one-stage clotting assay: anticoagulant function of PZ against FXa in the presence of heme; assay type: biochemical
# T4 construct: purchased CellSystems GmbH HCPZ-0220 (PZ); HCXA-0060 (FXa)
# Method: To estimate an effect on molecular level, the structure of the PZ–ZPI complex (PDB: 3H5C^[ [42] ^]) was first inspected with heme attached to PZ. The anticoagulant function of PZ was then analyzed in the presence of heme by a one‐stage clotting assay, which was inspired by previous work from us and others.^[ [19] ^, [27] ^] The aPTT‐based assay was performed with the ball coagulometer KC 4 A (Amelung, Lemgo, Germany). PZ (320 nM) was preincubated with different concentrations of heme (0–100 µM) for 30 min in 1x PBS, pH 7.4. Afterward, 50 µL of the PZ–heme mixture was incubated with 50 µL of Actin FSL, 50 µl CaCl2 (30 mM), and 50 µL FXa (0.5 nM) at 37 °C for 3 min. Finally, 50 µL citrated pooled plasma was added and the clotting time was automatically recorded. The following mixtures served as controls: 1) 50 µL PBS‐heme + 50 µL Actin FSL + 50 µL CaCl2 + 50 µL FXa + 50 µL citrated plasma, 2) 50 µL PBS‐heme + 50 µL Actin FSL + 50 µL CaCl2 + 50 µL PBS + 50 µL citrated plasma, 3) 50 µL PZ–heme + 50 µL Actin FSL + 50 µL CaCl2 + 50 µL PBS + 50 µL citrated plasma, 4) 50 µL PZ‐PBS + 50 µL Actin FSL + 50 µL CaCl2 + 50 µL FXa + 50 µL citrated plasma, 5) 50 µL PZ‐PBS + 50 µL Actin FSL + 50 µL CaCl2 + 50 µL PBS + 50 µL citrated plasma, 6) 50 µL PBS + 50 µL Actin FSL + 50 µL CaCl2 + 50 µL FXa + 50 µL citrated plasma, and 7) 50 µL PBS + 50 µL Actin FSL + 50 µL CaCl2 + 50 µL PBS + 50 µL citrated plasma. Final concentrations in the approach were 6 mM CaCl2, 0–20 µM heme, 32 nM and PZ, 0.1 nM FXa. Data were normalized against the clotting time of citrated plasma only (control (7)) and evaluated as the mean of triplicates. The IC50 was determined by fitting the curves with nonlinear regression (GraphPad Prism, version 10.5.0).
# [6] = Substrate control of the chromogenic assay without thrombin; assay type: biochemical; conditions: no thrombin; heme 1 – 1000 nM, PZ 10 nM; thrombin = 100 %
# Method: as §2, with “10.5.0). […]” for “10.5.0).”
# thrombinheme (0 nM)heme (1 nM) thrombin heme (3.16 nM)heme (10 nM)heme (31.6 nM)heme (100 nM)heme (316 nM)heme (1000 nM)PZ+heme (0 nM)PZ+heme (1 nM) PZ+heme (3.16 nM)PZ+heme (10 nM)PZ+heme (31.6 nM)PZ+heme (100 nM)PZ+heme (316 nM)PZ+heme (1000 nM)
# Figure S5. […]
# [7] = molecular target: PZ-dependent protease inhibitor (ZPI); set-up: method as in PMID 22786881, PMID 24960590; conditions: read-out: K D (PZ interaction with ZPI via peptidase-like domain); cited from earlier work
# [8] = set-up: method as in PMID 27584039; conditions: read-out: K D (PZ interaction with phospholipid surfaces via Gla domain); cited from earlier work
# [9] = molecular target: thrombin; set-up: method as in PMID 2040612; conditions: read-out: K D (PZ direct binding to thrombin); cited from earlier work
# [10] = tested on: thrombin; set-up: method as in PMID 2040612; conditions: PZ:thrombin ratios of ≈1:9 to ≈5:1; cited from earlier work
# [11] = molecular target: T2, thrombin; conditions: cited from earlier work
# [12] = molecular target: ZPI (Homo sapiens) (UniProt Q9UK55); conditions: cited from earlier work
# [13] = 100 mM HEPES pH 7.0, 30 min, stoichiometry 1:1
# ZPI (Homo sapiens), sequence (Q9UK55 22-444): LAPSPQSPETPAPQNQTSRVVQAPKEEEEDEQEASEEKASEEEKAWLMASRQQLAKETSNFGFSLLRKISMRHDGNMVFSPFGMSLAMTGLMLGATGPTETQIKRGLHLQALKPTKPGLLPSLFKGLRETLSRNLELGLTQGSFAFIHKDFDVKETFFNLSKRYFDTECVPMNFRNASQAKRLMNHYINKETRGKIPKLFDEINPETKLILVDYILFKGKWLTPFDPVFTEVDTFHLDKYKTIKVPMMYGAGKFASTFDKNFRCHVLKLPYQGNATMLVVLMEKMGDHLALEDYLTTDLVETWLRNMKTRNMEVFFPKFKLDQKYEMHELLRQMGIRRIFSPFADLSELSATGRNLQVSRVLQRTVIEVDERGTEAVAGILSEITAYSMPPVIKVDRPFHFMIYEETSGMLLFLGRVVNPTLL
compound,measurement,setting,value
C=CC1=C(C)c2cc3[nH]c(cc4nc(cc5[nH]c(cc1n2)c(C)c5CCC(=O)O)C(CCC(=O)O)=C4C)c(C)c3C=C [protoporphyrin IX],binding to PZ,[1],did not bind
same,Kd,"[2]; heterogeneous ligand model, read-out: KD1 (porphyrin binding to thrombin)",0.15 µM
same,Kd,[2]; read-out: KD2 (porphyrin binding to thrombin),2.2 µM
C=CC1=C(C)c2cc3[n-]c(cc4[n-]c(cc5nc(cc1n2)C(C)=C5C=C)c(C)c4CCC(=O)O)c(CCC(=O)O)c3C.[Zn+2] [zinc protoporphyrin IX],binding to PZ,[1],did not bind
AKNEC(Me)HPERT [Peptide 2],K D (heme-binding affinity of peptide),[3]; [13],n.b.
same,heme binding on peptide level,[3],did not bind heme
"C(Me)SLLHRNITVKTYFNRT ({Cys(S-Me)}-SLLHRNITVKTYFNRT) [Peptide 3, PZ-derived peptide around H183/Y191 with methylated cysteine, positions 179 - 195]",Kd,[3]; [13],1.13 ± 0.5 µM
same,heme binding on peptide level,[3],bound heme
FWRRYKGGS [Peptide 1],Kd,[3]; [13],1.04 ± 0.36 µM
same,heme binding on peptide level,[3],bound heme
"IKITHVHVHMRYD [Peptide 4, PZ-derived peptide around H206/H208/H210, positions 202 - 214]",Kd,[3]; [13],0.79 ± 0.36 µM
same,heme binding on peptide level,[3],bound heme
"PZ: Human protein Z, vitamin-K-dependent glycoprotein, anticoagulant cofactor; obtained from CellSystems GmbH",amidolytic activity of thrombin at highest PZ concentration,"[4]; PZ 1 µM, ratio ≈30:1 PZ:thrombin",≈ 140%
same,inhibitory effect toward the amidolytic activity of thrombin,"[4]; PZ:thrombin ratios of 1:15 to 21:1, without heme",≈ 20% and 20%
same,remaining amidolytic activity of thrombin,"[4]; PZ:thrombin ratios of 1:30 to ≈10:1, thrombin 30 nM",≈ 5080%
same,impact alone on the procoagulant function of FXa or on clotting of pure plasma (aPTT),"[5]; controls, heme 0.06 – 20 µM, PZ 32 nM, FXa 0.1 nM",not significantly influenced; also recorded: did not exert any significant impact
same,effect of PZ on the procoagulant effect of FXa,[5]; without heme,block the procoagulant effect of FXa completely
same,relative amidolytic activity toward substrate S-2238,[6],~ 0%
same,Kd,[7],~0.001 µM
same,Kd,[8],~48 µM
same,Kd,[9],0.11 to 0.15 µM
same,inhibition of the activity of thrombin in the presence of PZ,[10],≈ 20%
Protein Z (from UniProt P22891),Kd,[11],0.13 µM
Protein Z peptidase-like domain (from UniProt P22891),Kd,[12],0.001 µM
"VTREHRGSW [Peptide 5, PZ-derived peptide around H321, positions 317 - 325]",heme binding on peptide level,[3],did not bind heme
